This is an account of results in patent US4900757A, “Hypocholesterolemic and antiatherosclerotic uses of bix(3,5-di-tertiary-butyl-4-hydroxyphenylthio)methane” (Merrell Dow Pharmaceuticals Inc., priority 1988, dated 1990).

The subject of assay [1] is Watanabe heritable hyperlipidemic (WHHL) rabbit. As to the kind of experiment: Antiatherosclerotic and hypocholesterolemic effects in the Watanabe Heritable Hyperlipidemic rabbit (Example 2). In kind it is in vivo. As to conditions: for Aortic Lesions, as a percent of control group / HDL Protein, as a percent of control group / LDL Cholesterol, as a percent of control group / Plasma Cholesterol, as a percent of control group: mean vs respective control group. The source says: Divide Watanabe Heritable Hyperlipidemic rabbits (WHHL), 13 to 15 weeks of age, into two treatment groups of 4 to 5 rabbits each. To one treatment group feed standard rabbit chow [Control Group], and to the other group feed standard rabbit chow containing the test compound (1% by weight) [Treatment Group]. In one experiment, probucol is the active treatment [Treatment Group A]. In another experiment, bis(3,5-di-tertiarybutyl-4-hydroxyphenylthio)methane is the active treatment [Treatment Group B].
After 12 weeks of treatment, sacrifice the study animals and take plasma and aorta samples. Determine for each study animal the extent of the atherosclerotic lesions of the aorta by the method of Badimon et al. [Atherosclerosis 61, 57 (1986)]. Determine for each study animal plasma cholesterol concentrations by an enzymatic method using a DACOS analyzer (Coulter Electronics Inc., Hialeah, Florida, USA). Isolate plasma lipoproteins by sequential ultracentrifugation and determine LDL and HDL cholesterol and protein by the method of Mao et al. [Biochemistry 14, 4127 (1975)].

For the next assay, the system named is mice. To be noted: cited from earlier work.
For another assay, the system named is WHHL rabbit. To be noted: in words; cited from earlier work.
The test system of assay [2] is LDL. To be noted: in vitro; in words; cited from earlier work.
In assay [3] the test system is LDL. To be noted: in words; cited from earlier work.
A further assay deals with human LDL. The assay can be described thus: Inhibition of LDL peroxidation (cupric sulfate, thiobarbituric acid assay; Example 3). To be noted: ratio of ID50, in words.
The mark [4] stands for this setting: 1% (w/w) in feed, 12 weeks, in words.

`CC(C)(Sc1cc(C(C)(C)C)c(O)c(C(C)(C)C)c1)Sc1cc(C(C)(C)C)c(O)c(C(C)(C)C)c1` [Probucol, 2,2'-bis(3,5-di-tertiary-butyl-4-hydroxyphenylthio)propane, reference compound]: in assay [1] (1% (w/w) in feed, 12 weeks), the “Aortic Lesions, as a percent of control group” value is listed as -33%; the “HDL Protein, as a percent of control group” value was -21%; the “LDL Cholesterol, as a percent of control group” value was -15%; the “Plasma Cholesterol, as a percent of control group” value was -12%. The “amount of HDL in the blood, as measured by HDL protein” value in assay [1] (setting [4]) is given as “decreased”. In the assay with mice (2 week treatment), the “reduction in the blood cholesterol of mice” value is 59%. For the same compound, the “preventing the progression of atherosclerosis in WHHL rabbit” value in the assay on WHHL rabbit is “effective in preventing the progression of atherosclerosis”. Besides, the “inhibition of oxidative modification of LDL by cupric ions” value with LDL [2] is reported as “inhibits the oxidative modification of LDL”. Further, the “inhibition of oxidative modification of LDL by endothelial cells” value with LDL [3] is reported as “inhibits the oxidative modification of LDL”.

As for `CC(C)(C)c1cc(SCSc2cc(C(C)(C)C)c(O)c(C(C)(C)C)c2)cc(C(C)(C)C)c1O`, in assay [1] (1% (w/w) in feed, 12 weeks), the “Aortic Lesions, as a percent of control group” value is -38%; the “HDL Protein, as a percent of control group” value was “+8%”; the “LDL Cholesterol, as a percent of control group” value is given as -35%; the “Plasma Cholesterol, as a percent of control group” value is on record as -20%. Moreover, in assay [1] (setting [4]), the “amount of HDL in the blood, as measured by HDL protein” value is “increased”; the “reduction of LDL cholesterol compared with probucol” value was “to a greater extent than probucol”; the “reduction of aortic lesions compared with probucol” value is reported as “to a greater extent than probucol”; the “reduction of plasma cholesterol compared with probucol” value is “to a greater extent than probucol”. Moreover, in assay [1] (in words), the “progression of atherosclerosis in the WHHL rabbit” value is given as “prevents the progression of atherosclerosis” and the “serum cholesterol in the WHHL rabbit” value was “reduces serum cholesterol”. The “reduction in the blood cholesterol of mice, in words” value in the assay on mice (comparable treatment (to 2 weeks probucol)) was “no reduction”. In addition, the “effectiveness in inhibiting peroxidation of human LDL relative to probucol” value in the assay on human LDL is “over twice as effective”.
